Results as given in patent US20220226341A1, “Pharmaceutical Composition for Alzheimer's Disease” (Kyoto University, priority 2019, published 2022).

These compounds were tested against CDK9/CycT1 (Homo sapiens, UniProt P50750) (assay: CDK9 inhibitory activity, Off-chip Mobility Shift Assay (MSA)). Details: room temperature, one hour, read-out: IC50 value with respect to CDK9/CycT1.
Sequence of CDK9/CycT1 (P50750 whole entry): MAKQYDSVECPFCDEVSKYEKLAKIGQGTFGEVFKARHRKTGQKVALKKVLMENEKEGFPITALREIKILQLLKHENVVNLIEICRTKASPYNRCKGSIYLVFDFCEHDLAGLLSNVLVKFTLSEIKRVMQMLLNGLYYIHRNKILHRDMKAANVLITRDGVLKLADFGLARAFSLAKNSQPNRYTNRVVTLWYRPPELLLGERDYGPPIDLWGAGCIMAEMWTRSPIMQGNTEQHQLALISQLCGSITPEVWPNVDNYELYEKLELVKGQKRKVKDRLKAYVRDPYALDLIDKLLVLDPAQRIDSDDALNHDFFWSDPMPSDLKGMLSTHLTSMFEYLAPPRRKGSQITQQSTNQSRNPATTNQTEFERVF
Sequence of CDK9/CycT1 (O60563 whole entry partner): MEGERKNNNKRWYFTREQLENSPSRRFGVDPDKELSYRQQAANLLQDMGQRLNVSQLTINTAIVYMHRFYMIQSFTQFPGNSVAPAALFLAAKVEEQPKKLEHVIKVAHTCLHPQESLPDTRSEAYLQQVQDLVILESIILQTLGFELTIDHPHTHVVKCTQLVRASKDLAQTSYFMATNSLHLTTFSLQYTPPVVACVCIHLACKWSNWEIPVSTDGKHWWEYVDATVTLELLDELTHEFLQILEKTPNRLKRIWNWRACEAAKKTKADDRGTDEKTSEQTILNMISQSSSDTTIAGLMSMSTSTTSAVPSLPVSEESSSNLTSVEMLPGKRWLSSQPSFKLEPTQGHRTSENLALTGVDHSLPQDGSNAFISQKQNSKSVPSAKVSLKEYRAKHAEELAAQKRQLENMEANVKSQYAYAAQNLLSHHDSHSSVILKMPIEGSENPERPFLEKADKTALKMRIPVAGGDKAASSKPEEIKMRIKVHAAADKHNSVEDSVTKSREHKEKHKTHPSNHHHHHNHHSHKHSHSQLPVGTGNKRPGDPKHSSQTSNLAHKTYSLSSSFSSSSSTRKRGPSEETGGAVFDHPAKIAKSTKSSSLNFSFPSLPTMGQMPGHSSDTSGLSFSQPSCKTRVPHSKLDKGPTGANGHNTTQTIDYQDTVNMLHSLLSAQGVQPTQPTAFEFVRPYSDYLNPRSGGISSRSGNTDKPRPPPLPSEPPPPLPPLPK
Format: biochemical
Experimental: [Assay of CDK9 Inhibitory Activity]
The tests for confirming CDK9 inhibitory activity were carried out by the following procedure according to Off-chip Mobility Shift Assay (MSA).
A substrate/ATP/metal solution (4×) was prepared with use of a kit buffer (20 mM HEPES, 0.01% Triton X-100, 5 mM DTT, pH7.5). A kinase solution (2×) was prepared with use of an assay buffer.
2) The test substance solutions, the substrate/ATP/metal solution, and the kinase solution were mixed in wells of a polypropylene plate, and were caused to react at room temperature for one hour.
3) A termination buffer (QuickScout Screening Assist MSA; Cama Biosciences Inc.)
was added thereto to stop the reaction.
4) Substrate peptides and phosphorylated peptides in the reaction solutions were separated and quantified in LabChip™ System (PerkinElmer Co., Ltd.).
5) Kinase reaction activities were evaluated based on a product ratio (P/(P+S)) calculated from a peak height of the substrate peptide (S) and a peak height of the phosphorylated peptide (P).
An IC50 of 13.7 µM was found for O=C(Nc1cc(F)ccc1N1CCCCCC1)c1ccncc1 [Compound 4] in this work.
An IC50 of 13.1 µM was found for O=C(Nc1cc(F)ccc1N1CCCCC1)c1ccncc1 [Compound 2] in this work.
An IC50 of 13.3 µM was found for Fc1ccc(N2CCCCCC2)c(NC(=S)c2ccncc2)c1 [Compound 3] in this work.
